Legend:
Format in all cases: in vivo
[1] = tested on: barnyardgrass (Echinochloa crus-galli); assay: Test A pre-/postemergence: barnyardgrass; details: for Barnyardgrass plant response rating: Postemergence; for Plant response rating, Barnyardgrass: Preemergence
How it was run: (§1)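 Whole-plant greenhouse assay in loam/sand. Preemergence directed soil spray plus simultaneous postemergence spray (one- to two-leaf stage, 2–10 cm). Rated visually ~10 days later, 0 = no effect, 100 = complete control.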

[2] = tested on: pigweed (Amaranthus retroflexus); assay: Test A pre-/postemergence: pigweed; details: for Pigweed plant response rating: Postemergence; for Plant response rating, Pigweed: Preemergence
How it was run: as §1

[3] = tested on: wheat (Triticum aestivum); assay: Test A pre-/postemergence: wheat; details: for Wheat plant response rating: Postemergence; for Plant response rating, Wheat: Preemergence
How it was run: as §1

[4] = tested on: ryegrass, Italian (Italian ryegrass, Lolium multiflorum); assay: Test C pre-/postemergence: ryegrass, Italian
How it was run: (§2)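 Visual injury scored 0–100 (100 = complete control) against untreated controls after 13–15 greenhouse days. Surfactant-containing solvent formulations applied either to soil after sowing (loam/sand) or over 1- to 4-leaf plants, 2–18 cm tall.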

[5] = tested on: winter wheat (Triticum aestivum); assay: Test C pre-/postemergence: winter wheat
How it was run: as §2

[6] = tested on: lambsquarters (Chenopodium album); assay: Test C pre-/postemergence: lambsquarters
How it was run: as §2

[7] = tested on: pigweed (Amaranthus retroflexus); assay: Test C pre-/postemergence: pigweed
How it was run: as §2

[8] = tested on: soybean (Glycine max); assay: Test C pre-/postemergence: soybean
How it was run: as §2

[9] = 125 g ai/ha, 0 to 100 scale, 0 is no effect, 100 is complete control
[10] = 500 g ai/ha, visual rating on 0 to 100 scale (0 no effect, 100 complete control), approximately ten days
[11] = 125 g ai/ha, 0 to 100 scale where 0 is no effect and 100 is complete control
[12] = 500 g ai/ha, 0 to 100 scale (0 no effect, 100 complete control)
[13] = Postemergence, 31 g ai/ha, scale 0 to 100 (0 no effect, 100 complete control)
[14] = Postemergence, 62 g ai/ha, scale 0 to 100 (0 no effect, 100 complete control)
[15] = Postemergence, 125 g ai/ha, scale 0 to 100, 0 no effect, 100 complete control
[16] = Postemergence, 250 g ai/ha, scale 0 to 100
[17] = Preemergence, 31 g ai/ha, scale of 0 to 100, 0 is no effect, 100 is complete control
[18] = Preemergence, 62 g ai/ha, scale of 0 to 100, 0 is no effect, 100 is complete control
[19] = Preemergence, 125 g ai/ha, scale 0 to 100, 0 no effect, 100 complete control
[20] = Preemergence, 250 g ai/ha, scale 0 to 100, 0 no effect, 100 complete control
[21] = 125 g ai/ha, 0 to 100 scale (0 no effect, 100 complete control)
[22] = 500 g ai/ha, 0 to 100 scale, 0 is no effect, 100 is complete control

In the case of `Cc1nn(-c2ccc(C(F)(F)F)cc2)nc1Oc1ccnc(C(F)(F)F)c1` [Compound 120], the “Barnyardgrass plant response rating” value [1, 9] is reported as 60, the “Barnyardgrass plant response rating” value [1, 10] is reported as 80 and the “Plant response rating, Barnyardgrass” value [1, 11] is reported as 90. For the same molecule, the “Plant response rating, Barnyardgrass” value [1, 12] was 100, the “Pigweed plant response rating” value [2, 9] was 90 and the “Pigweed plant response rating” value [2, 10] was 100. For the same molecule, the “Plant response rating, Pigweed” value [2, 11] was 100, the “Plant response rating, Pigweed” value [2, 12] was 100 and the “Wheat plant response rating” value [3, 9] was 10. The “Wheat plant response rating” value [3, 10] was 30, the “Plant response rating, Wheat” value [3, 11] was 10 and the “Plant response rating, Wheat” value [3, 12] was 20. For the same molecule, the “Plant response rating, Ryegrass, Italian” value [4, 13] was 5, the “Plant response rating, Ryegrass, Italian” value [4, 14] was 5 and the “Plant response rating, Ryegrass, Italian” value [4, 15] was 5. The “Plant response rating, Ryegrass, Italian” value [4, 16] was 30, the “Plant response rating, Ryegrass, Italian” value [4, 17] was 40 and the “Plant response rating, Ryegrass, Italian” value [4, 18] was 90. For the same molecule, the “Plant response rating, Ryegrass, Italian” value [4, 19] was 90, the “Plant response rating, Ryegrass, Italian” value [4, 20] was 95 and the “Plant response rating, Wheat” value [5, 13] was 10. The “Plant response rating, Wheat” value [5, 14] was 10, the “Plant response rating, Wheat” value [5, 15] was 35 and the “Plant response rating, Wheat” value [5, 16] was 35. The “Plant response rating, Wheat” value [5, 17] was 5, the “Plant response rating, Wheat” value [5, 18] was 25 and the “Plant response rating, Wheat” value [5, 19] was 40. For the same molecule, the “Plant response rating, Wheat” value [5, 20] was 50, the “Plant response rating, Lambsquarters” value [6, 13] was 100 and the “Plant response rating, Lambsquarters” value [6, 14] was 100. For the same molecule, the “Plant response rating, Lambsquarters” value [6, 15] was 100, the “Plant response rating, Lambsquarters” value [6, 16] was 100 and the “Plant response rating, Lambsquarters” value [6, 17] was 85. The “Plant response rating, Lambsquarters” value [6, 18] was 100, the “Plant response rating, Lambsquarters” value [6, 19] was 100 and the “Plant response rating, Lambsquarters” value [6, 20] was 100. For the same molecule, the “Plant response rating, Pigweed” value [7, 13] was 95, the “Plant response rating, Pigweed” value [7, 14] was 98 and the “Plant response rating, Pigweed” value [7, 15] was 98. For the same molecule, the “Plant response rating, Pigweed” value [7, 16] was 100, the “Plant response rating, Pigweed” value [7, 17] was 100 and the “Plant response rating, Pigweed” value [7, 18] was 100. For the same molecule, the “Plant response rating, Pigweed” value [7, 19] was 100, the “Plant response rating, Pigweed” value [7, 20] was 100 and the “Plant response rating, Soybean” value [8, 13] was 25. The “Plant response rating, Soybean” value [8, 14] was 25, the “Plant response rating, Soybean” value [8, 15] was 55 and the “Plant response rating, Soybean” value [8, 16] was 100. For the same molecule, the “Plant response rating, Soybean” value [8, 17] was 0, the “Plant response rating, Soybean” value [8, 18] was 5 and the “Plant response rating, Soybean” value [8, 19] was 10. For the same molecule, the “Plant response rating, Soybean” value [8, 20] was 20.

For `Cc1nn(-c2ccc(C(F)(F)F)cn2)nc1Oc1ccnc(C(F)(F)F)c1` [Compound 23], the “Barnyardgrass plant response rating” value [1, 9] was 70, the “Barnyardgrass plant response rating” value [1, 10] was 90 and the “Plant response rating, Barnyardgrass” value [1, 21] was 70. For the same molecule, the “Plant response rating, Barnyardgrass” value [1, 22] was 100, the “Pigweed plant response rating” value [2, 9] was 100 and the “Pigweed plant response rating” value [2, 10] was 100. The “Plant response rating, Pigweed” value [2, 21] was 100, the “Plant response rating, Pigweed” value [2, 22] was 100 and the “Wheat plant response rating” value [3, 9] was 20. The “Wheat plant response rating” value [3, 10] was 50, the “Plant response rating, Wheat” value [3, 21] was 0 and the “Plant response rating, Wheat” value [3, 22] was 70. The “Plant response rating, Ryegrass, Italian” value [4, 13] was 5, the “Plant response rating, Ryegrass, Italian” value [4, 14] was 10 and the “Plant response rating, Ryegrass, Italian” value [4, 15] was 10. For the same molecule, the “Plant response rating, Ryegrass, Italian” value [4, 16] was 15, the “Plant response rating, Ryegrass, Italian” value [4, 17] was 0 and the “Plant response rating, Ryegrass, Italian” value [4, 18] was 5. The “Plant response rating, Ryegrass, Italian” value [4, 19] was 25, the “Plant response rating, Ryegrass, Italian” value [4, 20] was 70 and the “Plant response rating, Wheat” value [5, 13] was 10. For the same molecule, the “Plant response rating, Wheat” value [5, 14] was 10, the “Plant response rating, Wheat” value [5, 15] was 15 and the “Plant response rating, Wheat” value [5, 16] was 30. For the same molecule, the “Plant response rating, Wheat” value [5, 17] was 0, the “Plant response rating, Wheat” value [5, 18] was 0 and the “Plant response rating, Wheat” value [5, 19] was 20. For the same molecule, the “Plant response rating, Wheat” value [5, 20] was 35, the “Plant response rating, Lambsquarters” value [6, 13] was 40 and the “Plant response rating, Lambsquarters” value [6, 14] was 40. For the same molecule, the “Plant response rating, Lambsquarters” value [6, 15] was 98, the “Plant response rating, Lambsquarters” value [6, 16] was 98 and the “Plant response rating, Lambsquarters” value [6, 17] was 95. For the same molecule, the “Plant response rating, Lambsquarters” value [6, 18] was 98, the “Plant response rating, Lambsquarters” value [6, 19] was 98 and the “Plant response rating, Lambsquarters” value [6, 20] was 100. The “Plant response rating, Pigweed” value [7, 13] was 70, the “Plant response rating, Pigweed” value [7, 15] was 80 and the “Plant response rating, Pigweed” value [7, 16] was 95. The “Plant response rating, Pigweed” value [7, 17] was 100, the “Plant response rating, Pigweed” value [7, 18] was 100 and the “Plant response rating, Pigweed” value [7, 19] was 100. For the same molecule, the “Plant response rating, Pigweed” value [7, 20] was 100, the “Plant response rating, Soybean” value [8, 13] was 30 and the “Plant response rating, Soybean” value [8, 14] was 55. For the same molecule, the “Plant response rating, Soybean” value [8, 15] was 55, the “Plant response rating, Soybean” value [8, 16] was 65 and the “Plant response rating, Soybean” value [8, 17] was 0. For the same molecule, the “Plant response rating, Soybean” value [8, 18] was 5, the “Plant response rating, Soybean” value [8, 19] was 10 and the “Plant response rating, Soybean” value [8, 20] was 50.

From patent US9302999B2, “Substituted triazoles as herbicides” (E. I. DU PONT DE NEMOURS AND COMPANY, priority 2012, dated 2016)
